What was measured:
SARS-CoV-2 = test: Anti-SARS-CoV-2 activity in A549 cells expressing the human ACE2 receptor (inhibition of SARS-CoV-2 replication); assay type: cell-based; settings: for EC50: Severe acute respiratory syndrome coronavirus 2, A549-ACE2, 24 h, read-out: Antiviral Activity (EC50)
SARS-CoV-2 3CLpro = SARS-CoV-2 3CLpro (Severe acute respiratory syndrome coronavirus 2, UniProt P0DTD1); test: biochemical; settings: inhibition of SARS-CoV-2 3CLpro; 15 nM 3CLpro, 25 μM fluorogenic substrate, 37° C.; read-out: Inhibitory Activity (IC50)

Structure (SMILES)	EC50 (SARS-CoV-2) [nM]	IC50 (SARS-CoV-2 3CLpro) [nM]	antiviral potency in A549 cells in comparison with compound Ref-2 (SARS-CoV-2; A549 cells, versus Ref-2 (FIG. 7))
C[C@H](NC(=O)c1cc(Br)cc([N+](=O)[O-])c1N[C@@H]1COCC[C@@H]1NC(=O)c1cncc2ccccc12)C(F)(F)F [Compound 135, N-((3S, 4S)-3-((4-bromo-2-nitro-6-(((S)-1,1,1-trifluoropropan-2-yl)carbamoyl)phenyl)amino)tetrahydro-2H-pyran-4-yl)isoquinoline-4-carboxamide]	< 100	< 100	
O=C(c1cc(Br)cc([N+](=O)[O-])c1N[C@H]1CN(C(=O)c2cncc3ccccc23)CCC1(F)F)N1CC(O)C1 [Compound 139, (S)-(5-bromo-2-((4,4-difluoro-1-(isoquinoline-4-carbonyl)piperidin-3-yl)amino)-3-nitrophenyl)(3-hydroxyazetidin-1-yl)methanone]	< 100	< 100	
O=C(N[C@@H]1CCOC1)c1cc(Cl)cc([N+](=O)[O-])c1N[C@H]1CN(C(=O)c2cncc3ccccc23)CCC1(F)F [Compound 142, 5-chloro-2-(((S)-4,4-difluoro-1-(isoquinoline-4-carbonyl)piperidin-3-yl)amino)-3-nitro-N-((R)-tetrahydrofuran-3-yl)benzamide]	< 100	< 100	
O=C(c1cc(Cl)cc([N+](=O)[O-])c1N[C@H]1CN(C(=O)c2cncc3ccccc23)CCC1(F)F)N1CC(F)(F)C1 [Compound 143, (S)-(5-chloro-2-((4,4-difluoro-1-(isoquinoline-4-carbonyl)piperidin-3-yl)amino)-3-nitrophenyl)(3,3-difluoroazetidin-1-yl)methanone]	< 100	< 100	
O=C(NC1CC(F)(F)C1)c1cc(Br)cc(C(F)(F)F)c1N[C@H]1CN(C(=O)c2cncc3ccccc23)CCC1(F)F [Compound 144, (S)-5-bromo-2-((4,4-difluoro-1-(isoquinoline-4-carbonyl)piperidin-3-yl)amino)-N-(3,3-difluorocyclobutyl)-3-(trifluoromethyl)benzamide]	< 100	< 100	
O=C(NC1CC(F)(F)C1)c1cc(Cl)cc(C(F)(F)F)c1N[C@@H]1COCC[C@@H]1NC(=O)c1cncc2ccccc12 [Compound 145, N-((3S, 4S)-3-((4-chloro-2-((3,3-difluorocyclobutyl)carbamoyl)-6-(trifluoromethyl)phenyl)amino)tetrahydro-2H-pyran-4-yl)isoquinoline-4-carboxamide]	100 to 1000	100 to 1000	
CNC(=O)c1cc(Cl)cc(C(F)(F)F)c1N[C@@H]1COCC[C@@H]1NC(=O)c1cncc2ccccc12 [Compound 146, N-((3S, 4S)-3-((4-chloro-2-(methylcarbamoyl)-6-(trifluoromethyl)phenyl)amino)tetrahydro-2H-pyran-4-yl)isoquinoline-4-carboxamide]	100 to 1000	100 to 1000	
O=C(NC1CC1)c1cc(Br)cc([N+](=O)[O-])c1N[C@H]1CN(C(=O)c2cncc3ccccc23)CCC1(F)F [Compound 147, (S)-5-bromo-N-cyclopropyl-2-((4,4-difluoro-1-(isoquinoline-4-carbonyl)piperidin-3-yl)amino)-3-nitrobenzamide]	< 100	< 100	
O=C(N[C@H]1CCOC1)c1cc(Br)cc([N+](=O)[O-])c1N[C@H]1CN(C(=O)c2cncc3ccccc23)CCC1(F)F [Compound 149, 5-bromo-2-(((S)-4,4-difluoro-1-(isoquinoline-4-carbonyl)piperidin-3-yl)amino)-3-nitro-N-((S)-tetrahydrofuran-3-yl)benzamide]	< 100	< 100	
CN(C)C(=O)c1cc(Br)cc([N+](=O)[O-])c1N[C@H]1CN(C(=O)c2cncc3ccccc23)CCC1(F)F [Compound 151, (S)-5-bromo-2-((4,4-difluoro-1-(isoquinoline-4-carbonyl)piperidin-3-yl)amino)-N, N-dimethyl-3-nitrobenzamide]	< 100	< 100	better antiviral potency
